Results from patent publication US10220005B2 (GW Research Limited, priority 2012, dated 2019).

Legend:
piglet model of HI = assay: Piglet model of HI, Nissl staining of brain slices (Example 1); format: in vivo; conditions: piglets; for effect of co-administered antagonist on the CBD-induced reduction of neuronal death: given with CBD 1 mg/kg i.v., AM630 1 mg/kg, WAY100635 0.1 mg/kg, caffeine 10 mg/kg
Protocol: (§1) A piglet model of HI was used as described in (Alvarez et al. 2008). Briefly, an HI insult is induced in anesthetized 1-3 day-old piglets by occluding both carotid arteries and decreasing inspired oxygen from 21 to 10% for 30 min.
(§2) Thirty minutes after the recovery of HI the test compound was administered via the i.v. route.
(§3) At the end of the experiment, piglets are euthanized and the brain removed; one hemisphere was immediately frozen and stored at −80 ° C. whereas the other one was preserved in 4% paraformaldehide. A sample of frozen brain was obtained to perform a proton magnetic resonance spectroscopy (H+-MRS). Similarly managed piglets but without HI served as controls.

interleukin 1 = assay: Piglet model of HI, interleukin 1 in brain tissue by microarrays; format: in vivo; conditions: piglets
Protocol: as §1, §2, §3

rat model of HI [1] = assay: Rat model of HI, magnetic resonance imaging of brain lesion; format: in vivo, Wistar rats; conditions: rats, CBD 1 mg/kg s.c. single dose, one month later (P37)
Protocol: (§4) A rat model of HI was used as described by (Fernandez-Lopez et al., 2007). Briefly, an HI insult is induced in 7-10 day-old Wistar rats by electro-coagulating the left carotid artery under anaesthesia following by the exposure to 10% oxygen for 120 min.
The pups were then returned to their dams.
Rats were then euthanized and the brain removed and stored in 4% paraforlmadehide. Magnetic resonance imaging was performed on the brains to evaluate the damaged area. In some rats, MRI was performed 7 days after HI.

rat model of HI [2] = assay: Rat model of HI, neurobehavioral tests (rotarod, cylinder, novel object); format: in vivo, Wistar rats; conditions: rats, CBD 1 mg/kg s.c. single dose, tests at day 35
Protocol: as §4
Sham operated pups without hypoxia served as controls, and were treated with vehicle or CBD as indicated. The pups were then returned to their dams.
At day 35 rats underwent neurobehavioral tests: rotarod (to test coordination), cylinder (to test unilateral deficits) and novel object preference (to test memory impairments).

C=C(C)[C@@H]1CCC(C)=C[C@H]1c1c(O)cc(CCCCC)cc1O [CBD, cannabidiol]
percentage of necrotic tissue in both the cortex and the hippocampus (piglet model of HI; CBD 1 mg/kg i.v. 30 min after HI, brain tissue 6 h after HI): reduces | production of IL-1 (concentration of interleukin 1 in brain tissue) (interleukin 1; CBD 1 mg/kg i.v., 6 h after HI, microarrays): reduces | volume of lesion (MRI; printed as brain volume) (rat model of HI [1]): significantly reduced | coordination (RotaRod) (rat model of HI [2]): normalization | memory (novel object recognition) (rat model of HI [2]): normalization | motor performance (cylinder rear test) (rat model of HI [2]): normalization

Cn1c(=O)c2c(ncn2C)n(C)c1=O [caffeine, Caffeine]
effect of co-administered antagonist on the CBD-induced reduction of neuronal death (piglet model of HI): not by caffeine

COc1ccccc1N1CCN(CCN(C(=O)C2CCCCC2)c2ccccn2)CC1 [WAY]
effect of co-administered antagonist on the CBD-induced reduction of neuronal death (piglet model of HI): blunted

COc1ccc(C(=O)c2c(C)n(CCN3CCOCC3)c3cc(I)ccc23)cc1 [AM]
effect of co-administered antagonist on the CBD-induced reduction of neuronal death (piglet model of HI): blunted | effect of co-administered antagonist on the CBD reduction of IL-1 production (interleukin 1; given with CBD 1 mg/kg i.v., AM630 1 mg/kg, WAY100635 0.1 mg/kg, caffeine 10 mg/kg): blunted
